Reference: patent US20250339359A1, “PEPTIDE HAVING ACTIVITY OF IMPROVING STATE OF SKIN, AND USE THEREOF” (CAREGEN CO., LTD., priority 2021, published 2025)

How the values were obtained:
aquaporin-3 (AQP3) = experiment: Expression of AQP3 in HaCaT cells (RT-PCR); type: cell-based, human; conditions: 50 µM or 100 µM peptide, 24 hours, FIG. 4, FIG. 5B
Experimental: (§1) In this example, the aim was to confirm the effect of the peptides according to an example on skin barrier defense, by evaluating the expression levels of sirtuin-1 (SIRT-1) or aquaporin-3 (AQP3).
(§2) Specifically, HaCaT cells were seeded in a 6-well plate at a density of 3×10^5 cells/well and cultured for 24 hours. The cells were then washed once with serum-free DMEM media, and the culture medium was replaced with serum-free DMEM media. Thereafter, 50 µM or 100 µM of the peptide consisting of the amino acid sequence of SEQ ID NO: 1 was dispensed into the medium, and cultured in a CO2 incubator at 37° C. for 24 hours. The culture was then washed twice with PBS, and RNA was isolated from the culture using easy blue (iNtRON, Korea). Using the RT kit (Enzynomics, Korea), 1 μg of the isolated RNA was reverse transcribed to synthesize the respective cDNA. Polymerase chain reaction was then performed using the cDNAs and primers sirtuin-1 and aquaporin-3. Meanwhile, the untreated group was used as the control group, and the group to which EGF was added (EGF) was used as the positive control group, the nucleotide sequences of the primers used in this example are shown in Table 3 below.

elastin = experiment: Expression of elastin in NIH3T3 cells (RT-PCR); type: cell-based, mouse; conditions: 50 µM or 100 µM peptide, 24 hours, FIG. 2, FIG. 3C
Experimental: (§3) In this example, the aim was to confirm the effect of the peptide according to an example on improving endogenous skin aging, including improvement of wrinkles and enhancement of elasticity, etc., by evaluating the expression levels of collagen type 1 (Col1a1), fibronectin, or elastin, which are known components of the dermis.
(§4) Specifically, NIH3T3 cells were seeded in a 6-well plate at a density of 3×10^5 cells/well and cultured for 24 hours. The cells were then washed once with serum-free DMEM media, and the culture medium was replaced with serum-free DMEM media. Thereafter, 50 µM or 100 µM of the peptide consisting of the amino acid sequence of SEQ ID NO: 1 was dispensed into the medium, and cultured in a CO2 incubator at 37° C. for 24 hours. The culture was then washed twice with PBS, and RNA was isolated from the culture using easy blue (iNtRON, Korea). Using an RT kit (Enzynomics, Korea), 1 μg of the isolated RNA was reverse transcribed to synthesize the respective cDNA. Polymerase chain reaction (PCR) was then performed using the cDNAs and primers Col1a1, fibronectin, and elastin. Meanwhile, the untreated group was used as the control group, and the group to which TGF-β1 was added (TGF-β1) was used as the positive control group, the nucleotide sequences of the primers used in this example are shown in Table 2 below.

NIH3T3 cells [1] = experiment: Proliferation of skin cells (SRB staining), NIH3T3; type: cell-based, mouse; conditions: 50 µM or 100 µM peptide, 72 hours, serum-free DMEM, FIG. 1A
Experimental: (§5) In this example, the aim was to confirm the effect of a peptide according to an example on proliferation of skin cells, by evaluating changes in survival rate of NIH3T3 cells, which are mouse fibroblasts, or HaCaT cells, which are human keratinocytes.
(§6) Specifically, NIH3T3 cells or HaCaT cells were seeded in a 96-well plate at a density of 5×10^3 cells/well and cultured for 24 hours. The cells were then washed once with serum-free DMEM media, and the culture medium was replaced with serum-free DMEM media. Then, 50 µM or 100 µM of the peptide consisting of the amino acid sequence of SEQ ID NO: 1 was dispensed into the medium, and cultured in a CO2 incubator at 37° C. for 72 hours. The culture was then washed twice with PBS and treated with 4% paraformaldehyde (PFA) solution for 15 minutes to fix the cultured cells. The culture was then washed twice with distilled water, treated with SRB solution for 1 hour to stain the cells, washed with 1% acetic acid solution, and dried. The dried culture was then dissolved in 20 mM Tris buffer solution and the absorbance at 560 nm was measured using a microplate reader (Molecular Devices, USA). In this example, the untreated group was used as the control group, and the group to which insulin-like growth factor was added (IGF) was used as the positive control group.

sirtuin-1 (SIRT-1) = experiment: Expression of SIRT-1 in HaCaT cells (RT-PCR); type: cell-based, human; conditions: 50 µM or 100 µM peptide, 24 hours, FIG. 4, FIG. 5A
Experimental: as §1, §2

fibronectin = experiment: Expression of fibronectin in NIH3T3 cells (RT-PCR); type: cell-based, mouse; conditions: 50 µM or 100 µM peptide, 24 hours, FIG. 2, FIG. 3B
Experimental: as §3, §4

NIH3T3 cells [2] = experiment: Reactive oxygen species level after ultraviolet irradiation (DCF-DA, FACS), NIH3T3; type: cell-based, mouse; conditions: 6 J/cm2 ultraviolet rays, 50 µM or 100 µM peptide, 24 hours, FIG. 7A
Experimental: (§7) In this example, the aim was to confirm the effect of the peptide according to an embodiment on the antioxidant effect of skin cells induced by ultraviolet rays, by evaluating the level of reactive oxygen species in skin cells increased by ultraviolet irradiation.
(§8) Specifically, NIH3T3 cells or HaCaT cells were seeded in a 6-well plate at a density of 5×10^5 cells/well and cultured for 24 hours. The cells were then washed once with serum-free DMEM media, the culture medium was replaced with serum-free DMEM media, and 50 µM or 100 µM of the peptide consisting of the amino acid sequence of SEQ ID NO: 1 was dispensed to the culture medium. The culture medium dispensed with the peptide was cultured in a CO2 incubator at 37° C. for 1 hour, transferred to an e-tube, mixed with 100 ul of PBS, and dispensed into a well plate. Afterwards, using a UV irradiator (VILBER LOURMAT, France), 6 J/cm2 ultraviolet rays were irradiated to NIH3T3 cells, and 15 m J/cm2 ultraviolet rays were irradiated to HaCaT cells. The PBS in the well plate was then removed, 900 μL of the culture medium in which the peptides were dispensed was added, and the plate was cultured in a CO2 incubator at 37° C. for 24 hours. […] After washing the centrifuged cells with PBS, FL1 fluorescence values were measured through flow cytometry (FACS, BD, USA). […]

NIH3T3 cells [3] = experiment: Survival rate after ultraviolet-induced apoptosis (SRB), NIH3T3; type: cell-based, mouse; conditions: 6 J/cm2 ultraviolet rays, 50 µM or 100 µM peptide, 72 hours, FIG. 6A
Experimental: (§9) In this example, the aim was to confirm the effect of the peptide according to an example on the inhibition of apoptosis or cell recovery of skin cells induced by ultraviolet rays, by evaluating the change in survival rate of skin cells whose apoptosis was induced by ultraviolet irradiation.
(§10) Specifically, NIH3T3 cells or HaCaT cells were seeded in a 96-well plate at a density of 1×10^4 cells/well and cultured for 24 hours. The cells were then washed once with serum-free DMEM media, the culture medium was replaced with serum-free DMEM media, and 50 µM or 100 µM of the peptide consisting of the amino acid sequence of SEQ ID NO: 1 was dispensed to the culture medium. The culture medium dispensed with the peptide was cultured in a CO2 incubator at 37° C. for 1 hour, transferred to an e-tube, mixed with 100 ul of PBS, and dispensed into a well plate. Afterwards, using a UV irradiator (VILBER LOURMAT, France), 6 J/cm2 ultraviolet rays were irradiated to NIH3T3 cells, and 15 m J/cm2 ultraviolet rays were irradiated to HaCaT cells. The PBS in the well plate was then removed, 900 μL of the culture medium in which the peptides were dispensed was added, and the plate was cultured in a CO2 incubator at 37° C. for 72 hours. […] The dried culture was then dissolved in 20 mM Tris buffer solution and the absorbance at 560 nm was measured using a microplate reader (Molecular Devices, USA). […]

HaCaT cells [4] = experiment: Reactive oxygen species level after ultraviolet irradiation (DCF-DA, FACS), HaCaT; type: cell-based, human; conditions: 15 m J/cm2 ultraviolet rays, 50 µM or 100 µM peptide, 24 hours, FIG. 7B
Experimental: as §7, §8

HaCaT cells [5] = experiment: Survival rate after ultraviolet-induced apoptosis (SRB), HaCaT; type: cell-based, human; conditions: 15 m J/cm2 ultraviolet rays, 50 µM or 100 µM peptide, 72 hours, FIG. 6B
Experimental: as §9, §10

HaCaT cells [6] = experiment: Proliferation of skin cells (SRB staining), HaCaT; type: cell-based, human; conditions: 50 µM or 100 µM peptide, 72 hours, serum-free DMEM, FIG. 1B
Experimental: as §5, §6

collagen type 1 (Col1a1) = experiment: Expression of Col1a1 in NIH3T3 cells (RT-PCR); type: cell-based, mouse; conditions: 50 µM or 100 µM peptide, 24 hours, FIG. 2, FIG. 3A
Experimental: as §3, §4

EALKYWYEN (Peptide 1) [SEQ ID NO: 1]
expression of AQP3 (aquaporin-3 (AQP3)): increased
expression of elastin (elastin): increased
proliferation of fibroblasts (NIH3T3 cells [1]): promoted
expression of SIRT-1 (sirtuin-1 (SIRT-1)): increased
expression of fibronectin (fibronectin): increased
level of reactive oxygen species in fibroblasts increased by ultraviolet irradiation (NIH3T3 cells [2]): reduced
cell survival rate of fibroblasts reduced by ultraviolet irradiation (NIH3T3 cells [3]): restored
level of reactive oxygen species in keratinocytes increased by ultraviolet irradiation (HaCaT cells [4]): reduced
cell survival rate of keratinocytes reduced by ultraviolet irradiation (HaCaT cells [5]): restored
proliferation of keratinocytes (HaCaT cells [6]): promoted
expression of Col1a1 (collagen type 1 (Col1a1)): increased
